The text below walks through data of paper PMC5299038 (Structure (London, England : 1993), 2017).

A word on the Km: it is the substrate concentration at which the rate is half of its maximum.

Test [1] addresses TpCADE (Trueperella pyogenes, UniProt Z9JAQ5MWQ7). Briefly: coupled glucose oxidase assay. It counts as biochemical. To be noted: hydrolysis of the alpha-1,3-linkages.
For test [2], the system named is TpCADE. To be noted: hydrolysis of the alpha-1,3-linkages.

Consider cycloalternan, for which the values for the Michaelis-Menten constant (Km) at TpCADE [1] and in the test with TpCADE [2] were 2.1 ± 0.2 mM and 9.3 ± 1.5 mM, respectively.
